In ChEMBL document CHEMBL1142394, “Morphinane alkaloid dimers from Sinomenium acutum” (J Nat Prod, 2008) one finds IC50 data, which are given here for two molecules.

One assay concerns A549. Nature of the assay: Cytotoxicity against human A549 cells by MTT assay. It counts as functional, cell-based.
The test system of the next assay is HeLa. The experiment in a line: Cytotoxicity against human HeLa cells by MTT assay. It counts as functional, cell-based. In general terms: Tetrazolium assays rely on reduction of a dye to a coloured formazan, in cell work by metabolically active cells.

What is called IC50 is the midpoint of a concentration-inhibition curve. Low readings indicate greater potency, high ones weaker potency.

Take `COC1=C[C@@H]2[C@@H]3Cc4c(-c5cc(OC)c(O)c6c5C[C@H]5[C@H]7C=C(OC)C(=O)C[C@@]67CCN5C)cc(OC)c(O)c4[C@]2(CCN3C)CC1=O`: the IC50 with A549 was 71.8 µM; in the assay on HeLa, 70.7 µM.
With `COC1=C[C@@H]2[C@@H]3Cc4cc(-c5cc6c(c(O)c5OC)[C@@]57CCN(C)[C@@H](C6)[C@H]5C=C(OC)C(=O)C7)c(OC)c(O)c4[C@]2(CCN3C)CC1=O`, the values for the IC50 with A549 and in the assay with HeLa were 65.5 µM and 71.7 µM, respectively.
